Results taken from paper PMC10246557, “Kinetic and inhibition studies on human Jumonji-C (JmjC) domain-containing protein 5” (RSC Chemical Biology, 2023).
Where two headings read alike, the source gives them in different places.

Legend:
human JMJD5 [1] = target: T1, human JMJD5 (Homo sapiens, UniProt Q8N371); assay: SPE-MS JMJD5 turnover and kinetic assay (RPS6_128–148 hydroxylation); format: biochemical; conditions: absence of 2OG; JMJD5 0.15 μM, 2OG derivative 400 μM, Fe(II) 20 μM, RPS6_128–148 2.0 μM
T1 construct: made in house; host or cells: Escherichia coli BL21(DE3)
Description: JMJD5 turnover assays for time course and kinetic experiments were performed in 96-well polypropylene assay plates (Greiner) with either […] total reaction volume using the concentrations given in the manuscript or ESI, ^† and JMJD5-catalysed substrate hydroxylation was directly monitored using SPE-MS. […] Assay samples were aspirated under vacuum for 0.6 s and loaded onto a C4 solid phase extraction (SPE) cartridge. After loading, the C4 SPE cartridge was washed with 0.1%v/v aqueous formic acid to remove non-volatile buffer salts (5.5 s, 1.5 mL min^−1). The peptide was eluted from the SPE cartridge with 0.1%v/v aqueous formic acid in 80/20v/v acetonitrile/water into the mass spectrometer (5.5 s, 1.5 mL min^−1) and the SPE cartridge re-equilibrated with 0.1%v/v aqueous formic acid (0.5 s, 1.5 mL min^−1). The mass spectrometer was operated using the MassHunter Workstation B.08.00 software (Agilent), the mass spectrometer parameters were: capillary voltage (4000 V), nozzle voltage (1000 V), fragmentor voltage (365 V), gas temperature (280 °C), gas flow (13 L min^−1), sheath gas temperature (350 °C), sheath gas flow (12 L min^−1). […] Data were exported into Microsoft Excel and used to calculate the % conversion of the hydroxylation reaction using the equation: % conversion = 100 × (integral product peptide)/(integral substrate peptide + integral product peptide).
parameters (continues on the following two pages). Maximum velocities (vapp ) and Michaelis constants (Kapp)
of JMJD5 were determined in independent triplicates, monitoring the JMJD5-catalyzed hydroxylation of the
SPE-MS, as described (Experimental Section).
20 °C). Measurement times were normalized to the first sample injection analyzed after the addition of JMJD5 to
shown as the mean of three independent runs (n = 3; mean ± standard deviation, SD).
hexahydrate (20 μM, (NH4)2Fe(SO4)2·6H2O); and (b) hydroxylation rates used to determine kinetic parameters of
(1 picture or pasted object on this page, not shown here)
Maximum velocities (vapp ) and
Michaelis constants (Kapp) of JMJD5 were determined in independent triplicates for (1R)-3-
(carboxycarbonyl)cyclopentane-1-carboxylic acid (14), monitoring the JMJD5-catalyzed hydroxylation of the
as described (Experimental Section).
pH 7.5, 20 °C). Measurement times were normalized to the first sample injection analyzed after the addition of
(§1) Data are shown as the mean of three independent runs (n = 3; mean ± SD).
to determine kinetic parameters of JMJD5 for 14.

human KDM4E = target: T2, human KDM4E (Homo sapiens, UniProt B2RXH2); assay: KDM4E SPE-MS turnover and kinetic assay (H3 K9(me3) peptide demethylation); format: biochemical; conditions: absence of 2OG; KDM4E 0.15 μM, 2OG derivative 330 μM, Fe(II) 50 μM, ARTAQTARK(me3)STGGIA 10.0 μM
T2 sequence (B2RXH2 1-506): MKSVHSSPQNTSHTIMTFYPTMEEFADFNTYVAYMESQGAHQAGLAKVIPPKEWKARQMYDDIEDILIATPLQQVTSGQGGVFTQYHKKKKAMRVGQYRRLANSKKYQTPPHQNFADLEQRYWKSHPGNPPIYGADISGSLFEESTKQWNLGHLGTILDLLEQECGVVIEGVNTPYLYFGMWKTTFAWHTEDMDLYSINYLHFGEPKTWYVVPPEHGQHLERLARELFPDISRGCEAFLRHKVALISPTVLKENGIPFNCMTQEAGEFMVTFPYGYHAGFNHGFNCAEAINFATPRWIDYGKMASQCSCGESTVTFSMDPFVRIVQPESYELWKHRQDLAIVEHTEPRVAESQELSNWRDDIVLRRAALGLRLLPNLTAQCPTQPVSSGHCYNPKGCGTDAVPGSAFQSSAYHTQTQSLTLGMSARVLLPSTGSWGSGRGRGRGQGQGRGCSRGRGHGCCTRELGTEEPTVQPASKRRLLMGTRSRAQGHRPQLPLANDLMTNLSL
Description: KDM4E turnover and inhibition assays were performed as reported using recombinant human KDM4E and a histone 3 K9(me3) derivative (i.e. […](me3)STGGIA)[41] as substrate.[95]
Supplementary Figure S3. Rates of KDM4E-catalyzed Nε-trimethyl lysine demethylations of a histone 3- […]
Maximum velocities (vapp ) and Michaelis […]
catalyzed Nε-trimethyl lysine demethylation of the histone 3 K9(me3)-derived peptide […]
(me3)STGGIA2 by SPE-MS as described;3 note that mono-, di-, and tri-demethylated product […]
buffer (50 mM MES, pH 7.0, 20 °C). Measurement times were normalized to the first sample injection analyzed […]
as §1
(a) Time course of the KDM4E-catalyzed Nε-trimethyl lysine demethylation reaction of the […]

human FIH = conditions: absence of 2OG; FIH 0.15 μM, 2OG derivative 330 μM, Fe(II) 50 μM, HIF-1α788–822 5.0 μM; cited from earlier work
human AspH = conditions: absence of 2OG; AspH 0.1 μM, 2OG derivative 330 μM, Fe(II) 50 μM, hFX-CP101–119 2.0 μM; cited from earlier work
human JMJD5 [2] = target: T1, human JMJD5; assay: SPE-MS JMJD5 inhibition assay; format: biochemical; conditions: 2OG 2.0 μM, Fe(II) 2.0 μM, LAA 100 μM, RPS6_128–148 2.0 μM
Description: Solutions of the small-molecules (100% DMSO) were dry dispensed across 384 well polypropylene V-bottom assay microplates (Greiner) in an approximately three-fold and 11-point dilution series (100 μM inhibitor top concentration; the final DMSO assay concentration was kept constant at 0.5%v/v) using an ECHO 550 acoustic dispenser (Labcyte). […] Each reaction was performed in technical duplicates in adjacent wells of the assay plates; additionally, assays were performed in two independent duplicates on different days using different inhibitor solutions.
The Enzyme Mixture (25 μL per well), containing 0.3 μM His6-thioredoxin-tagged JMJD5 in buffer (50 mM MOPS, pH 7.5), was dispensed across the inhibitor-containing 384-well plates with a multidrop dispenser (ThermoFischer Scientific) at 20 °C under an ambient atmosphere. The plates were subsequently centrifuged (1000 rpm, 5 s) and incubated for 15 min at 20 °C. […] The plates were centrifuged (1000 rpm, 5 s) and, after incubating for 30 min, the enzyme reaction was stopped by the addition of 10%v/v aqueous formic acid (5 μL per well). The plates were then centrifuged (1000 rpm, 30 s) and analyzed by MS.
Z′-Factors were calculated according to the cited literature using Microsoft Excel.[61]

[3] = JMJD5 0.15 μM, read-out: IC50 JMJD5

T1 sequence (Q8N371 whole entry): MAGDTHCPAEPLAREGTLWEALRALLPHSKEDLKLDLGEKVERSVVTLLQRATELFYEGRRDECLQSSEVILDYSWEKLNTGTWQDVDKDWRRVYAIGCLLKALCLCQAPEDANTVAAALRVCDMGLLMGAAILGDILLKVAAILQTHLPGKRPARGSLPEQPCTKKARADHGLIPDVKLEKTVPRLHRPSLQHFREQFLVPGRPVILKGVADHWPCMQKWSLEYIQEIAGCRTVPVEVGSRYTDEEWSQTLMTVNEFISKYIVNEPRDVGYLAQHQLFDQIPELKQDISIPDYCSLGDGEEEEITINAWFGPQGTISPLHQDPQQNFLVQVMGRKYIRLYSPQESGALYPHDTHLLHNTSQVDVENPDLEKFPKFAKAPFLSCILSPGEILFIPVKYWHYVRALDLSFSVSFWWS

Structure (SMILES) | JMJD5 (%): RPS6_128–148 hydroxylation with the compound as cosubstrate (human JMJD5 [1]) | KDM4E (%): substrate demethylation with the compound as cosubstrate (human KDM4E) | FIH (%): substrate hydroxylation with the compound as cosubstrate (human FIH) | AspH (%): substrate hydroxylation with the compound as cosubstrate (human AspH) | IC50 (human JMJD5 [2]; [3]) | IC50 (human JMJD5 [2]; IC50 JMJD5, JMJD5 0.15 μM)
CCCC(CC(=O)C(=O)O)C(=O)O (centres unmarked) [C00006] | ∼10% | <1% | ∼5% | <1% |  | 
CCCC(CC(=O)O)C(=O)C(=O)O (centres unmarked) [C00007] | <1% | <1% | <1% | <1% |  | 
O=C(O)C(=O)CC(CCCc1ccccc1)C(=O)O (centres unmarked) [C00008] | <1% | <1% | <1% | <1% |  | 
O=C(O)CC(CCCc1ccccc1)C(=O)C(=O)O (centres unmarked) [C00009] | <1% | ∼2% | <1% | <1% |  | 
O=C(O)C(=O)CC(Cc1ccccc1)C(=O)O (centres unmarked) [C00010] | <1% | <1% | <1% | <1% |  | 
O=C(O)CC(Cc1ccc(OC(F)(F)F)cc1)C(=O)C(=O)O (centres unmarked) [C00011] | <1% | <1% | <1% | <1% |  | 
COc1ccc(CC(CC(=O)O)C(=O)C(=O)O)cc1 (centres unmarked) [C00013] | ∼10% | ∼5% | <1% | <1% |  | 
O=C(O)C(=O)c1ccccc1C(=O)O [C00014] | <1% | <1% | <1% | <1% |  | 
CC1(C)c2ccccc2-c2ccc(CC(CC(=O)O)C(=O)C(=O)O)cc21 (centres unmarked) [C00015] | <1% | <1% | <1% | <1% |  | 
O=C(O)C(=O)c1cccc(C(=O)O)c1 [C00016] | <1% | <1% | <1% | <1% |  | 
CC(CC(=O)C(=O)O)C(=O)O (centres unmarked) [C00017] | ∼10% | <1% | ∼45% | ∼10% |  | 
O=C(O)C(=O)c1ccc(C(=O)O)cc1 [C00018] | <1% | <1% | <1% | ∼80% |  | 
O=C(O)CNC(=O)C(=O)O [C00025] |  |  |  |  | 0.15 ± 0.02 µM | 
O=C(O)c1ccc(O)c2ncccc12 [C00029] |  |  |  |  |  | 2.6 ± 0.1 µM
O=C(O)C(=O)N[C@H](Cc1ccccc1)C(=O)O [C00030] |  |  |  |  | > 100 µM | 
O=c1c2ccccc2[se]n1-c1ccccc1 [C00031] |  |  |  |  | 0.69 ± 0.15 µM | 
CN(C)CCCNC(=O)c1ccc(-c2cc(O)c3ncccc3c2)cc1 [C00034] |  |  |  |  | 3 ± 0.5 µM | 
O=C(O)CNC(=O)c1c(O)c2ccccc2n(Cc2ccccc2)c1=O [C00035, reference compound] |  |  |  |  | 17.8 ± 5.6 µM | 
O=C(O)CCNc1cc(N2CCc3ccccc3CC2)nc(-c2ccccn2)n1 [C00036] |  |  |  |  | 4.4 ± 0.5 µM | 
O=C(O)CNC(=O)c1c(O)c2ccccc2n(OCC2CC2)c1=O [C00037, reference compound] |  |  |  |  |  | 37.2 ± 6 µM
O=c1c(-n2ccnn2)c[nH]n1-c1cc(N2CCOCC2)ncn1 [C00039, reference compound] |  |  |  |  | 29.5 ± 1.6 µM | 
O=C(O)C(=O)c1ccccc1C(=O)O [Entry 26] | < 1% | < 1% | < 1% | < 1% |  | 
O=C(O)C(=O)c1cscc1C(=O)O [Entry 34] | < 1% | < 1% | < 1% | < 1% |  | 
